Details: Cohort 1 200 mg QD

## CC(C)NC(=O)COc1cccc(-c2nc(Nc3ccc4[nH]ncc4c3)c3ccccc3n2)c1 [Belumosudil, 2-{3-[4-(1H-indazol-5-ylamino)-2-quinazolinyl]phenoxy}-N-(propan-2-yl) acetamide]
  Diarrhoea: Affected/At Risk: 6/17
  Diarrhoea: Affected/At Risk (%): (35.29%)
  Dizziness: # Events: 0
  Dizziness: Affected/At Risk: 0/17
  Dizziness: Affected/At Risk (%): (0%)
  Drug eruption: # Events: 0
  Drug eruption: Affected/At Risk: 0/17
  Drug eruption: Affected/At Risk (%): (0%)
  Dry eye: # Events: 3
  Dry eye: Affected/At Risk: 2/17
  Dry eye: Affected/At Risk (%): (11.76%)
  Dry skin: # Events: 1
  Dry skin: Affected/At Risk: 1/17
  Dry skin: Affected/At Risk (%): (5.88%)
  Dyspepsia: # Events: 0
  Dyspepsia: Affected/At Risk: 0/17
  Dyspepsia: Affected/At Risk (%): (0%)
  Dysphagia: # Events: 1
  Dysphagia: Affected/At Risk: 1/17
  Dysphagia: Affected/At Risk (%): (5.88%)
  Dyspnoea exertional: # Events: 1
  Dyspnoea exertional: Affected/At Risk: 1/17
  Dyspnoea exertional: Affected/At Risk (%): (5.88%)
  Dyspnoea: # Events: 2
  Dyspnoea: Affected/At Risk: 2/17
  Dyspnoea: Affected/At Risk (%): (11.76%)
  Embolism: # Events: 1
  Embolism: Affected/At Risk: 1/17
  Embolism: Affected/At Risk (%): (5.88%)
  Enamel anomaly: # Events: 0
  Enamel anomaly: Affected/At Risk: 0/17
  Enamel anomaly: Affected/At Risk (%): (0%)
  Epidural lipomatosis: # Events: 1
  Epidural lipomatosis: Affected/At Risk: 1/17
  Epidural lipomatosis: Affected/At Risk (%): (5.88%)
  Epstein-Barr virus infection: # Events: 1
  Epstein-Barr virus infection: Affected/At Risk: 1/17
  Epstein-Barr virus infection: Affected/At Risk (%): (5.88%)
  Erectile dysfunction: # Events: 4
  Erectile dysfunction: Affected/At Risk: 2/17
  Erectile dysfunction: Affected/At Risk (%): (11.76%)
  Eye irritation: # Events: 1
  Eye irritation: Affected/At Risk: 1/17
  Eye irritation: Affected/At Risk (%): (5.88%)
  Eye pain: # Events: 0
  Eye pain: Affected/At Risk: 0/17
  Eye pain: Affected/At Risk (%): (0%)
  Eye pruritus: # Events: 0
  Eye pruritus: Affected/At Risk: 0/17
  Eye pruritus: Affected/At Risk (%): (0%)
  Fall: # Events: 2
  Fall: Affected/At Risk: 2/17
  Fall: Affected/At Risk (%): (11.76%)
  Fatigue: # Events: 7
  Fatigue: Affected/At Risk: 6/17
  Fatigue: Affected/At Risk (%): (35.29%)
  Flatulence: # Events: 0
  Flatulence: Affected/At Risk: 0/17
  Flatulence: Affected/At Risk (%): (0%)
  Flushing: # Events: 0
  Flushing: Affected/At Risk: 0/17
  Flushing: Affected/At Risk (%): (0%)
  Fungal infection: # Events: 1
  Fungal infection: Affected/At Risk: 1/17
  Fungal infection: Affected/At Risk (%): (5.88%)
  Gamma-glutamyltransferase increased: # Events: 9
  Gamma-glutamyltransferase increased: Affected/At Risk: 4/17
  Gamma-glutamyltransferase increased: Affected/At Risk (%): (23.53%)
  Gastric ulcer: # Events: 0
  Gastric ulcer: Affected/At Risk: 0/17
  Gastric ulcer: Affected/At Risk (%): (0%)
  Gastrooesophageal reflux disease: # Events: 2
  Gastrooesophageal reflux disease: Affected/At Risk: 2/17
  Gastrooesophageal reflux disease: Affected/At Risk (%): (11.76%)
  Generalised oedema: # Events: 1
  Generalised oedema: Affected/At Risk: 1/17
  Generalised oedema: Affected/At Risk (%): (5.88%)
  Genital infection fungal: # Events: 0
  Genital infection fungal: Affected/At Risk: 0/17
  Genital infection fungal: Affected/At Risk (%): (0%)
  Glaucoma: # Events: 0
  Glaucoma: Affected/At Risk: 0/17
  Glaucoma: Affected/At Risk (%): (0%)
  Glucose urine present: # Events: 3
  Glucose urine present: Affected/At Risk: 2/17
  Glucose urine present: Affected/At Risk (%): (11.76%)
  Graft versus host disease in gastrointestinal tract: # Events: 1
  Graft versus host disease in gastrointestinal tract: Affected/At Risk: 1/17
  Graft versus host disease in gastrointestinal tract: Affected/At Risk (%): (5.88%)
  Gynaecomastia: # Events: 0
  Gynaecomastia: Affected/At Risk: 0/17
  Gynaecomastia: Affected/At Risk (%): (0%)
  Haematuria: # Events: 1
  Haematuria: Affected/At Risk: 1/17
  Haematuria: Affected/At Risk (%): (5.88%)
  Hair growth abnormal: # Events: 1
  Hair growth abnormal: Affected/At Risk: 1/17
  Hair growth abnormal: Affected/At Risk (%): (5.88%)
  Headache: # Events: 4
  Headache: Affected/At Risk: 4/17
  Headache: Affected/At Risk (%): (23.53%)
  Hodgkin's disease recurrent: # Events: 1
  Hodgkin's disease recurrent: Affected/At Risk: 1/17
  Hodgkin's disease recurrent: Affected/At Risk (%): (5.88%)
  Hordeolum: # Events: 1
  Hordeolum: Affected/At Risk: 1/17
  Hordeolum: Affected/At Risk (%): (5.88%)
  Hot flush: # Events: 1
  Hot flush: Affected/At Risk: 1/17
  Hot flush: Affected/At Risk (%): (5.88%)
  Hyperglycemia: # Events: 2
  Hyperglycemia: Affected/At Risk: 2/17
  Hyperglycemia: Affected/At Risk (%): (11.76%)
  Hyperhidrosis: # Events: 0
  Hyperhidrosis: Affected/At Risk: 0/17
  Hyperhidrosis: Affected/At Risk (%): (0%)
  Hyperkalaemia: # Events: 7
  Hyperkalaemia: Affected/At Risk: 3/17
  Hyperkalaemia: Affected/At Risk (%): (17.65%)
  Hypertension: # Events: 8
  Hypertension: Affected/At Risk: 5/17
  Hypertension: Affected/At Risk (%): (29.41%)
  Hyperthyroidism: # Events: 0
  Hyperthyroidism: Affected/At Risk: 0/17
  Hyperthyroidism: Affected/At Risk (%): (0%)
  Hypertriglyceridaemia: # Events: 0
  Hypertriglyceridaemia: Affected/At Risk: 0/17
  Hypertriglyceridaemia: Affected/At Risk (%): (0%)
  Hyperuricaemia: # Events: 6
  Hyperuricaemia: Affected/At Risk: 1/17
  Hyperuricaemia: Affected/At Risk (%): (5.88%)
  Hypoaesthesia: # Events: 2
  Hypoaesthesia: Affected/At Risk: 1/17
  Hypoaesthesia: Affected/At Risk (%): (5.88%)
  Hypocalcaemia: # Events: 0
  Hypocalcaemia: Affected/At Risk: 0/17
  Hypocalcaemia: Affected/At Risk (%): (0%)
